Data reported in ChEMBL document CHEMBL1909294, “Translating clinical findings into knowledge in drug safety evaluation--drug induced liver injury prediction system (DILIps)” (PLoS Comput Biol, 2011).

Assays:
[1] = tested on: Hepatotoxicity;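 for HepSE Combined Scores: combined hepatic side effect score as listed in the training data of the Drug Induced Liver Injury Prediction System (DILIps)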;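 for HepSE cholecystitis: Cholecystitis-related hepatic side effect score drawn from the DILIps (drug-induced liver injury prediction) training data set; call rule not given here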;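 for HepSE cirrhosis: cirrhosis hepatic side effect score taken from the DILIps (drug-induced liver injury prediction) training set; call rule not given here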;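 for HepSE elevated liver function tests: hepatic side effect score for raised liver function tests, as recorded in the DILIps training set used for predicting drug-induced liver injury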; for HepSE hepatic failure: call rule not given here;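 for HepSE hepatomegaly: hepatic side effect score for hepatomegaly, taken from the training set of the DILIps drug-induced liver injury prediction system; call rule not given here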;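 for HepSE jaundice: Jaundice-related hepatic side-effect score drawn from the training data of the DILIps (drug-induced liver injury prediction system); call rule not given here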
[2] = tested on: Hepatotoxicity; remark: listed apart in the source;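 for HepSE Combined Scores: combined hepatic side effect score as listed in the training data of the Drug Induced Liver Injury Prediction System (DILIps)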;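 for HepSE cholecystitis: Cholecystitis-related hepatic side effect score drawn from the DILIps (drug-induced liver injury prediction) training data set; call rule not given here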;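 for HepSE cirrhosis: cirrhosis hepatic side effect score taken from the DILIps (drug-induced liver injury prediction) training set; call rule not given here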;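 for HepSE elevated liver function tests: hepatic side effect score for raised liver function tests, as recorded in the DILIps training set used for predicting drug-induced liver injury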; for HepSE hepatic failure: call rule not given here;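 for HepSE hepatomegaly: hepatic side effect score for hepatomegaly, taken from the training set of the DILIps drug-induced liver injury prediction system; call rule not given here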;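 for HepSE jaundice: Jaundice-related hepatic side-effect score drawn from the training data of the DILIps (drug-induced liver injury prediction system); call rule not given here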
[3] = tested on: Hepatotoxicity; remark: listed apart in the source;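 for HepSE Combined Scores: combined hepatic side effect score as listed in the training data of the Drug Induced Liver Injury Prediction System (DILIps)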;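 for HepSE cholecystitis: Cholecystitis-related hepatic side effect score drawn from the DILIps (drug-induced liver injury prediction) training data set; call rule not given here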;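 for HepSE cirrhosis: cirrhosis hepatic side effect score taken from the DILIps (drug-induced liver injury prediction) training set; call rule not given here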;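 for HepSE elevated liver function tests: hepatic side effect score for raised liver function tests, as recorded in the DILIps training set used for predicting drug-induced liver injury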; for HepSE hepatic failure: call rule not given here;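 for HepSE hepatomegaly: hepatic side effect score for hepatomegaly, taken from the training set of the DILIps drug-induced liver injury prediction system; call rule not given here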
[4] = tested on: Hepatotoxicity; remark: listed apart in the source;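 for HepSE Combined Scores: combined hepatic side effect score as listed in the training data of the Drug Induced Liver Injury Prediction System (DILIps)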;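 for HepSE cholecystitis: Cholecystitis-related hepatic side effect score drawn from the DILIps (drug-induced liver injury prediction) training data set; call rule not given here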;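 for HepSE cirrhosis: cirrhosis hepatic side effect score taken from the DILIps (drug-induced liver injury prediction) training set; call rule not given here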;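 for HepSE elevated liver function tests: hepatic side effect score for raised liver function tests, as recorded in the DILIps training set used for predicting drug-induced liver injury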; for HepSE hepatic failure: call rule not given here;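 for HepSE hepatomegaly: hepatic side effect score for hepatomegaly, taken from the training set of the DILIps drug-induced liver injury prediction system; call rule not given here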
[5] = tested on: Hepatotoxicity; remark: listed apart in the source; for HepSE hepatic failure: call rule not given here
[6] = tested on: Hepatotoxicity; remark: listed apart in the source; for HepSE hepatic failure: call rule not given here
[7] = tested on: Hepatotoxicity; remark: listed apart in the source
[8] = tested on: Hepatotoxicity; remark: listed apart in the source
[9] = tested on: Hepatotoxicity; remark: listed apart in the source
[10] = tested on: Hepatotoxicity; remark: listed apart in the source
[11] = tested on: Hepatotoxicity; remark: listed apart in the source
[12] = tested on: Hepatotoxicity; remark: listed apart in the source
[13] = tested on: Hepatotoxicity; remark: listed apart in the source
[14] = tested on: Hepatotoxicity; remark: listed apart in the source

Row | Structure (SMILES) | HepSE_elevated liver function tests [1] | HepSE_Combined Scores [2] | HepSE_cholecystitis [3] | HepSE_hepatic failure [4] | HepSE_cirrhosis [5] | HepSE_hepatomegaly [6] | HepSE_jaundice [7] | HepSE_liver fatty [8] | HepSE_liver disease [9] | HepSE_liver function tests abnormal [10] | HepSE_hepatitis [11] | HepSE_bilirubinemia [12] | HepSE_cholelithiasis [13] | HepSE_hepatic necrosis [14] | other results
1 | Nc1ccc(O)c(C(=O)O)c1 [MESALAMINE] | 1 | 8 | 1 | 1 | 1 | 0 | 1 | 0 | 0 | 0 | 1 | 0 | 1 | 1 | 
2 | O=S(=O)([O-])CCS.[Na+] [MESNA] | 0 | 0 | 0 | 0 | 0 | 0 | 0 | 0 | 0 | 0 | 0 | 0 | 0 | 0 | 
3 | CN1CCCCC1CCN1c2ccccc2Sc2ccc([S+](C)[O-])cc21 (stereo unspecified) [MESORIDAZINE] |  |  |  |  |  |  |  |  |  |  |  |  |  |  | HepSE_elevated liver function tests ([1]; Liver): 0; HepSE_Combined Scores ([2]; Liver): 1; HepSE_cholecystitis ([3]; Liver): 0; HepSE_hepatic failure ([4]; Liver): 0; HepSE_cirrhosis ([5]; Liver): 0; HepSE_hepatomegaly ([6]; Liver): 0; HepSE_jaundice ([7]; Liver): 1; HepSE_liver fatty ([8]; Liver): 0; HepSE_liver disease ([9]; Liver): 0; HepSE_liver function tests abnormal ([10]; Liver): 0; HepSE_hepatitis ([11]; Liver): 0; HepSE_bilirubinemia ([12]; Liver): 0; HepSE_cholelithiasis ([13]; Liver): 0; HepSE_hepatic necrosis ([14]; Liver): 0
4 | CC(C)NCC(O)c1cc(O)cc(O)c1 (stereo unspecified) [METAPROTERENOL] | 0 | 0 | 0 | 0 | 0 | 0 | 0 | 0 | 0 | 0 | 0 | 0 | 0 | 0 | 
5 | CN(C)C(=N)N=C(N)N [METFORMIN] |  |  |  |  |  |  |  |  |  |  |  |  |  |  | HepSE_elevated liver function tests ([1]; Liver): 0; HepSE_Combined Scores ([2]; Liver): 2; HepSE_cholecystitis ([3]; Liver): 0; HepSE_hepatic failure ([4]; Liver): 0; HepSE_cirrhosis ([5]; Liver): 0; HepSE_hepatomegaly ([6]; Liver): 0; HepSE_jaundice ([7]; Liver): 0; HepSE_liver fatty ([8]; Liver): 0; HepSE_liver disease ([9]; Liver): 0; HepSE_liver function tests abnormal ([10]; Liver): 1; HepSE_hepatitis ([11]; Liver): 1; HepSE_bilirubinemia ([12]; Liver): 0; HepSE_cholelithiasis ([13]; Liver): 0; HepSE_hepatic necrosis ([14]; Liver): 0
6 | CCC(=O)C(CC(C)N(C)C)(c1ccccc1)c1ccccc1 (stereo unspecified) [METHADONE] | 0 | 0 | 0 | 0 | 0 | 0 | 0 | 0 | 0 | 0 | 0 | 0 | 0 | 0 | 
7 | CN[C@@H](C)Cc1ccccc1 [METHAMPHETAMINE] | 0 | 0 | 0 | 0 | 0 | 0 | 0 | 0 | 0 | 0 | 0 | 0 | 0 | 0 | 
8 | CC(=O)/N=c1/sc(S(N)(=O)=O)nn1C [METHAZOLAMIDE] | 0 | 1 | 0 | 0 | 0 | 0 | 0 | 0 | 0 | 0 | 0 | 0 | 0 | 1 | 
9 | C1N2CN3CN1CN(C2)C3 [METHENAMINE] | 0 | 0 | 0 | 0 | 0 | 0 | 0 | 0 | 0 | 0 | 0 | 0 | 0 | 0 | 
10 | COc1ccccc1OCC(O)COC(N)=O (stereo unspecified) [METHOCARBAMOL] | 0 | 1 | 0 | 0 | 0 | 0 | 1 | 0 | 0 | 0 | 0 | 0 | 0 | 0 | 
11 | C=CCC1(C(C)C#CCC)C(=O)N=C(O)N(C)C1=O (stereo unspecified) [METHOHEXITAL] | 0 | 1 | 0 | 0 | 0 | 0 | 0 | 0 | 0 | 1 | 0 | 0 | 0 | 0 | 
12 | CN(Cc1cnc2nc(N)nc(N)c2n1)c1ccc(C(=O)N[C@@H](CCC(=O)O)C(=O)O)cc1 [METHOTREXATE] | 1 | 5 | 0 | 1 | 1 | 0 | 0 | 0 | 0 | 0 | 1 | 1 | 0 | 0 | 
13 | COc1c2occc2cc2ccc(=O)oc12 [METHOXSALEN] | 0 | 0 | 0 | 0 | 0 | 0 | 0 | 0 | 0 | 0 | 0 | 0 | 0 | 0 | 
14 | CN1C(=O)CC(C)(c2ccccc2)C1=O (stereo unspecified) [METHSUXIMIDE] | 0 | 0 | 0 | 0 | 0 | 0 | 0 | 0 | 0 | 0 | 0 | 0 | 0 | 0 | 
